Test results reported in patent publication US20110039721A1, “METHOD FOR PREDICTION ABOUT CARCINOGENICITY OF SUBSTANCE IN RODENT” (Chemicals Evaluation and Research Institute, priority 2007, published 2011).

Experiments:
[1] = system: mRNA expressed from the genes (A) to (D) in rat liver; experiment: Behavior of genes (mRNA expression level, oligo-DNA microarray) in rat liver after 28-day oral administration; assay type: in vivo; details: rat liver, oral once daily 28 days; for Behavior of gene caused by administration of chemical substance, Gene No. 4846 / Behavior of gene caused by administration of chemical substance, Gene No. 4218 / Behavior of gene caused by administration of chemical substance, Gene No. 2026 / Behavior of gene caused by administration of chemical substance, Gene No. 6182 / Behavior of gene caused by administration of chemical substance, Gene No. 5600: (A); for Behavior of gene caused by administration of chemical substance, Gene No. 4846: Unigene Rn.144554, defined direction +; for Behavior of gene caused by administration of chemical substance, Gene No. 4218: Unigene Rn.167075, defined direction +, significant = 1.5 times or more or 1/1.5 or less of control; for Behavior of gene caused by administration of chemical substance, Gene No. 2026: Unigene Rn.167075, defined direction −; for Behavior of gene caused by administration of chemical substance, Gene No. 6182: Unigene Rn.5834, defined direction +; for Behavior of gene caused by administration of chemical substance, Gene No. 5600: Unigene Rn.9836, defined direction +; for Behavior of gene caused by administration of chemical substance, Gene No. 1494 / Behavior of gene caused by administration of chemical substance, Gene No. 2045 / Behavior of gene caused by administration of chemical substance, Gene No. 2203: (B); for Behavior of gene caused by administration of chemical substance, Gene No. 1494: Unigene Rn.1430, defined direction −; for Behavior of gene caused by administration of chemical substance, Gene No. 2045: Unigene Rn.19329, defined direction +; for Behavior of gene caused by administration of chemical substance, Gene No. 2203: Unigene Rn.21240, defined direction +; for Behavior of gene caused by administration of chemical substance, Gene No. 533 / Behavior of gene caused by administration of chemical substance, Gene No. 725 / Behavior of gene caused by administration of chemical substance, Gene No. 1163 / Behavior of gene caused by administration of chemical substance, Gene No. 4973 / Behavior of gene caused by administration of chemical substance, Gene No. 4095 / Behavior of gene caused by administration of chemical substance, Gene No. 1334 / Behavior of gene caused by administration of chemical substance, Gene No. 6620 / Behavior of gene caused by administration of chemical substance, Gene No. 6303 / Behavior of gene caused by administration of chemical substance, Gene No. 5878 / Behavior of gene caused by administration of chemical substance, Gene No. 1131 / Behavior of gene caused by administration of chemical substance, Gene No. 1562 / Behavior of gene caused by administration of chemical substance, Gene No. 1741 / Behavior of gene caused by administration of chemical substance, Gene No. 893 / Behavior of gene caused by administration of chemical substance, Gene No. 6026 / Behavior of gene caused by administration of chemical substance, Gene No. 154 / Behavior of gene caused by administration of chemical substance, Gene No. 1993 / Behavior of gene caused by administration of chemical substance, Gene No. 813 / Behavior of gene caused by administration of chemical substance, Gene No. 2494 / Behavior of gene caused by administration of chemical substance, Gene No. 2546 / Behavior of gene caused by administration of chemical substance, Gene No. 3776 / Behavior of gene caused by administration of chemical substance, Gene No. 3929 / Behavior of gene caused by administration of chemical substance, Gene No. 1119 / Behavior of gene caused by administration of chemical substance, Gene No. 6742 / Behavior of gene caused by administration of chemical substance, Gene No. 5634: (C); for Behavior of gene caused by administration of chemical substance, Gene No. 533: Unigene Rn.106184, defined direction +; for Behavior of gene caused by administration of chemical substance, Gene No. 725: Unigene Rn.108075, defined direction −; for Behavior of gene caused by administration of chemical substance, Gene No. 1163: Unigene Rn.11766, defined direction +; for Behavior of gene caused by administration of chemical substance, Gene No. 4973: Unigene Rn.118529, defined direction −; for Behavior of gene caused by administration of chemical substance, Gene No. 4095: Unigene Rn.119024, defined direction −; for Behavior of gene caused by administration of chemical substance, Gene No. 1334 / Behavior of gene caused by administration of chemical substance, Gene No. 6620: Unigene Rn.120914, defined direction +; for Behavior of gene caused by administration of chemical substance, Gene No. 6303: Unigene Rn.123063, defined direction −; for Behavior of gene caused by administration of chemical substance, Gene No. 5878: Unigene Rn.143213, defined direction −; for Behavior of gene caused by administration of chemical substance, Gene No. 1131: Unigene Rn.144946, defined direction −; for Behavior of gene caused by administration of chemical substance, Gene No. 1562: Unigene Rn.14744, defined direction −; for Behavior of gene caused by administration of chemical substance, Gene No. 1741: Unigene Rn.1647, defined direction −; for Behavior of gene caused by administration of chemical substance, Gene No. 893: Unigene Rn.164817, defined direction +; for Behavior of gene caused by administration of chemical substance, Gene No. 6026: Unigene Rn.167685, defined direction −; for Behavior of gene caused by administration of chemical substance, Gene No. 154: Unigene Rn.185941, defined direction −; for Behavior of gene caused by administration of chemical substance, Gene No. 1993: Unigene Rn.18728, defined direction −; for Behavior of gene caused by administration of chemical substance, Gene No. 813: Unigene Rn.201760, defined direction +; for Behavior of gene caused by administration of chemical substance, Gene No. 2494: Unigene Rn.23969, defined direction +; for Behavior of gene caused by administration of chemical substance, Gene No. 2546: Unigene Rn.24561, defined direction −; for Behavior of gene caused by administration of chemical substance, Gene No. 3776: Unigene Rn.43232, defined direction −; for Behavior of gene caused by administration of chemical substance, Gene No. 3929: Unigene Rn.4620, defined direction +; for Behavior of gene caused by administration of chemical substance, Gene No. 1119: Unigene Rn.9757, defined direction +; for Behavior of gene caused by administration of chemical substance, Gene No. 6742: Unigene Rn.9779, defined direction +; for Behavior of gene caused by administration of chemical substance, Gene No. 5634: Unigene Rn.9862, defined direction −; for Behavior of gene caused by administration of chemical substance, Gene No. 5726: (D), Unigene Rn.9939, defined direction −
Summary of the method: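 Oral gavage, once daily × 28 days; male F344 SPF rats, 5 wk, n=4/group; vehicle controls given equal solvent volume. Liver excised day 28, total RNA purified. Significance: ≥1.5× or ≤1/1.5 of vehicle, direction concordant with other carcinogens.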

liver = details: in vivo; cited from earlier work
rodent = details: in vivo; cited from earlier work

| SMILES | Behavior of gene caused by administration of chemical substance, Gene No. 4846 [1] | Behavior of gene caused by administration of chemical substance, Gene No. 4218 [1] | Behavior of gene caused by administration of chemical substance, Gene No. 2026 [1] | Behavior of gene caused by administration of chemical substance, Gene No. 6182 [1] | Behavior of gene caused by administration of chemical substance, Gene No. 5600 [1] | Behavior of gene caused by administration of chemical substance, Gene No. 1494 [1] | Behavior of gene caused by administration of chemical substance, Gene No. 2045 [1] | Behavior of gene caused by administration of chemical substance, Gene No. 2203 [1] | Behavior of gene caused by administration of chemical substance, Gene No. 533 [1] | Behavior of gene caused by administration of chemical substance, Gene No. 725 [1] | Behavior of gene caused by administration of chemical substance, Gene No. 1163 [1] | Behavior of gene caused by administration of chemical substance, Gene No. 4973 [1] | Behavior of gene caused by administration of chemical substance, Gene No. 4095 [1] | Behavior of gene caused by administration of chemical substance, Gene No. 1334 [1] | Behavior of gene caused by administration of chemical substance, Gene No. 6620 [1] | Behavior of gene caused by administration of chemical substance, Gene No. 6303 [1] | Behavior of gene caused by administration of chemical substance, Gene No. 5878 [1] | Behavior of gene caused by administration of chemical substance, Gene No. 1131 [1] | Behavior of gene caused by administration of chemical substance, Gene No. 1562 [1] | Behavior of gene caused by administration of chemical substance, Gene No. 1741 [1] | other results |
| --- | --- | --- | --- | --- | --- | --- | --- | --- | --- | --- | --- | --- | --- | --- | --- | --- | --- | --- | --- | --- | --- |
| O=NN1CCCCC1 [TS042, N-Nitrosopiperidine] | + | + | + | + | + | + | − | − | + | − | − | − | − | − | − | + | − | + | + | − | Behavior of gene caused by administration of chemical substance, Gene No. 893 [1]: −; Behavior of gene caused by administration of chemical substance, Gene No. 6026 [1]: −; Behavior of gene caused by administration of chemical substance, Gene No. 154 [1]: −; Behavior of gene caused by administration of chemical substance, Gene No. 1993 [1]: +; Behavior of gene caused by administration of chemical substance, Gene No. 813 [1]: +; Behavior of gene caused by administration of chemical substance, Gene No. 2494 [1]: −; Behavior of gene caused by administration of chemical substance, Gene No. 2546 [1]: −; Behavior of gene caused by administration of chemical substance, Gene No. 3776 [1]: −; Behavior of gene caused by administration of chemical substance, Gene No. 3929 [1]: −; Behavior of gene caused by administration of chemical substance, Gene No. 1119 [1]: −; Behavior of gene caused by administration of chemical substance, Gene No. 6742 [1]: −; Behavior of gene caused by administration of chemical substance, Gene No. 5634 [1]: −; Behavior of gene caused by administration of chemical substance, Gene No. 5726 [1]: +; Liver carcinogenicity (liver): Cr+; Carcinogenicity (rodent): C+ |
| CC(=O)Nc1ccc2c(c1)Cc1ccccc1-2 [TS043, 2-Acetylaminofluorene] | + | + | + | + | + | − | − | − | − | + | + | + | + | − | − | + | − | − | + | − | Behavior of gene caused by administration of chemical substance, Gene No. 893 [1]: +; Behavior of gene caused by administration of chemical substance, Gene No. 6026 [1]: −; Behavior of gene caused by administration of chemical substance, Gene No. 154 [1]: −; Behavior of gene caused by administration of chemical substance, Gene No. 1993 [1]: +; Behavior of gene caused by administration of chemical substance, Gene No. 813 [1]: −; Behavior of gene caused by administration of chemical substance, Gene No. 2494 [1]: −; Behavior of gene caused by administration of chemical substance, Gene No. 2546 [1]: −; Behavior of gene caused by administration of chemical substance, Gene No. 3776 [1]: −; Behavior of gene caused by administration of chemical substance, Gene No. 3929 [1]: −; Behavior of gene caused by administration of chemical substance, Gene No. 1119 [1]: −; Behavior of gene caused by administration of chemical substance, Gene No. 6742 [1]: −; Behavior of gene caused by administration of chemical substance, Gene No. 5634 [1]: −; Behavior of gene caused by administration of chemical substance, Gene No. 5726 [1]: −; Liver carcinogenicity (liver): Cr+; Carcinogenicity (rodent): C+ |
